Holding throughout (test): Bliss excess, mean over the matrix (fraction); higher = more synergy
In assay [1] the test system is KYSE-70 (Esophageal Squamous Cell Carcinoma). In outline:
(§1)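 After 24 hours at 37°C and 5% CO2 in 1536-well plates, cells in DMEM/F12 or RPMI plus 10% FBS received two-drug dose matrices for 72 hours. Viability came from CellTiter-Glo 2.0 luminescence and was scaled as inhibition, anchored at 0 by vehicle wells and at 1 by blank wells. Combination Emax is taken as the second-highest inhibition in the matrix, and Bliss excess as the observed combination effect less EA + EB − EA·EB, with EA and EB the single-agent effects.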

The test system of assay [2] is NCI-H1623 (Lung Adenocarcinoma). An outline of the steps: as §1
The subject of assay [3] is ES-2 (Ovarian Carcinoma). An outline of the steps:
as §1

Assay [4] relates to NCI-H810 (Non-Small Cell Lung Carcinoma). In outline:
as §1

For assay [5], the system named is SW684 (Other Solid Carcinomas). An outline of the steps:
as §1

Assay [6] deals with Calu-6 (Non-Small Cell Lung Carcinoma). An outline of the steps: as §1
The test system of assay [7] is NCI-H196 (Small Cell Lung Carcinoma). An outline of the steps: as §1
The subject of assay [8] is Caov-3 (Ovarian Carcinoma). In outline:
as §1

Assay [9] concerns SJRH30 (Rhabdomyosarcoma). An outline of the steps: as §1
Assay [10] concerns AN3-CA (Endometrial Carcinoma). In outline: as §1
In assay [11] the test system is RERF-LC-KJ (Lung Adenocarcinoma). In outline: as §1
The subject of assay [12] is NCI-H1755 (Lung Adenocarcinoma). In outline: as §1
The subject of assay [13] is NCI-H1563 (Lung Adenocarcinoma). In outline:
as §1

Assay [14] deals with BALL-1 (B-Lymphoblastic Leukemia). In outline: as §1
Assay [15] concerns Becker (Low Grade Glioma). In outline:
as §1

In assay [16] the test system is CML-T1 (Chronic Myelogenous Leukemia). An outline of the steps: as §1
In assay [17] the test system is FLO-1 (Esophageal Adenocarcinoma). An outline of the steps:
as §1

Assay [18] concerns LOUCY (T-Lymphoblastic Leukemia). In outline:
as §1

For assay [19], the system named is LAMA-84 (Chronic Myelogenous Leukemia). An outline of the steps:
as §1

Assay [20] relates to EB-3 (Burkitt's Lymphoma). An outline of the steps:
as §1

For `C[C@@H]1COCCN1c1cc(C2([S@](C)(=N)=O)CC2)nc(-c2ccnc3[nH]ccc23)n1` [AZD6738] + O=C(c1cc(Cc2n[nH]c(=O)c3ccccc23)ccc1F)N1CCN(C(=O)C2CC2)CC1 [Olaparib] (first compound max 10 µM, 7x7, partner max 10 µM), the Bliss excess in assay [1] is 0.021; in [2], -0.0325; in [3], -0.0136; in [4], -0.008; in assay [5], -0.0144; in assay [6], -0.0679. The Bliss excess in assay [7] was 0.0275; in assay [8], -0.0231; in [9], -0.0205; in assay [10] it was 0.0208; in [11], 0.0228; in assay [12] it was -0.0131. In addition, the Bliss excess in assay [13] is -0.0116; in assay [14], -0.0204; in [15], -0.0077; in assay [16] it was -0.0182; in [17] it was -0.0348; in assay [18] it was -0.0284. The Bliss excess was 0.0233 in assay [19] and -0.0955 in assay [20].

Take `Cc1cc2ncnn2cc1Nc1ncc2c(n1)n(C1CCOCC1)c(=O)n2C` [AZD7648] + C=CCn1c(=O)c2cnc(Nc3ccc(N4CCN(C)CC4)cc3)nc2n1-c1cccc(C(C)(C)O)n1 [AZD1775] (first compound max 10 µM, partner max 1 µM): the Bliss excess was 0.0184 in [1]; 0.0376 in assay [2]; 0.0248 in assay [3]; -0.0103 in assay [4]; -0.017 in [5]; -0.0282 in assay [6]. The Bliss excess in assay [7] is -0.0249; in assay [8], -0.0869; in [9], 0.0139; in assay [10] it was -0.0091; in assay [11], 0.0509; in assay [12], 0.0084. For the same compound, the Bliss excess in assay [13] was -0.0041; in assay [14] it was -0.0169; in [15] it was -0.0269; in assay [16], 0.0112; in [17] it was -0.023; in assay [18] it was 0.0464. The values for the Bliss excess in assay [19] and in assay [20] were 0.046 and -0.102, respectively.

As to `Cc1cc2ncnn2cc1Nc1ncc2c(n1)n(C1CCOCC1)c(=O)n2C` [AZD7648] + CCN(CCO)CCCOc1ccc2c(Nc3cc(CC(=O)Nc4cccc(F)c4)[nH]n3)ncnc2c1 [AZD2811] (first compound max 10 µM, 7x7, partner max 1 µM), the Bliss excess in [1] is 0.0476; in assay [2], -0.0311; in assay [3], 0.0083; in [4], -0.0162; in [5] it was -0.027; in assay [6], 0.0268. In addition, the Bliss excess was -0.0181 in [7]; -0.0523 in assay [8]; 0.0417 in assay [9]; 0.0113 in assay [10]; 0.0428 in assay [11]; 0.0038 in assay [12]. Also, the Bliss excess in assay [13] is 0.0036; in [14], 0.13; in assay [15] it was 0.0154; in [16] it was 0.069; in assay [17], 0.0161; in assay [18], -0.043. Further, the Bliss excess in assay [19] was 0.115; in assay [20], -0.0338.

In the case of `Cc1cc2ncnn2cc1Nc1ncc2c(n1)n(C1CCOCC1)c(=O)n2C` [AZD7648] + CN(C)CCCOc1ccc(-c2ccc3ncc4c(c3c2)n(C2CCOCC2)c(=O)n4C)cn1 [AZD0156] (first compound max 10 µM, 7x7, partner max 1 µM), the Bliss excess is 0.0213 in assay [1]; -0.0209 in [2]; 0.029 in [3]; 0.0125 in assay [4]; -0.056 in assay [5]; 0.0024 in assay [6]. Also, the Bliss excess in assay [7] is -0.0173; in assay [8], -0.0085; in assay [9], 0.0105; in assay [10], -0.0224; in assay [11] it was 0.0285; in assay [12] it was 0.0118. Also, the Bliss excess in assay [13] is -0.0164; in [14] it was -0.0108; in assay [15] it was 0.0066; in assay [16] it was -0.0092; in [17], -0.0665; in [18] it was 0.0007. Also, the Bliss excess in assay [19] was -0.0024; in assay [20], -0.0867.

`Cc1cc2ncnn2cc1Nc1ncc2c(n1)n(C1CCOCC1)c(=O)n2C` [AZD7648] + C[C@@H]1COCCN1C2=NC(=NC(=C2)C3(CC3)[S@](=N)(=O)C)C4=C5C=CNC5=NC=C4 [AZD6738] (first compound max 10 µM, 7x7, partner max 10 µM): the Bliss excess in [1] is 0.0213; in assay [2], 0.0359; in assay [3], 0.0572; in assay [4], -0.0367; in assay [5], -0.0272; in assay [6], -0.018. For the same compound, the Bliss excess in assay [7] worked out at 0.0126; in assay [8] it was 0.0433; in assay [9] it was 0.0113; in assay [10] it was 0.0515; in [11], 0.0386; in [12], 0.0513. Moreover, the Bliss excess in [13] was 0.0367; in assay [14] it was 0.0025; in assay [15], -0.0207; in assay [16], -0.0465; in [17], -0.0191; in assay [18], 0.0271. In addition, the values for the Bliss excess in [19] and in assay [20] were -0.0284 and -0.0278, respectively.

As to `Cc1cc2ncnn2cc1Nc1ncc2c(n1)n(C1CCOCC1)c(=O)n2C` [AZD7648] + O=C(c1cc(Cc2n[nH]c(=O)c3ccccc23)ccc1F)N1CCN(C(=O)C2CC2)CC1 [Olaparib] (first compound max 10 µM, 7x7, partner max 10 µM), the Bliss excess in assay [1] was -0.0528; in [2] it was -0.0486; in assay [3], -0.0354; in [4] it was -0.0482; in assay [5], -0.0452; in assay [6] it was -0.0391. Also, the Bliss excess in [7] is -0.0435; in assay [8] it was -0.0336; in [9], -0.0148; in assay [10], -0.0738; in [11], -0.0546; in assay [12], -0.0464. The Bliss excess in [13] was -0.0487; in assay [14], 0.0624; in assay [15] it was -0.0281; in assay [16], -0.0483; in assay [17] it was -0.0259; in assay [18], -0.0388. Also, the Bliss excess in assay [19] is -0.0044; in assay [20], -0.0401.

On to `COc1cccc2c1C(=O)c1c(O)c3c(c(O)c1C2=O)C[C@@](O)(C(=O)CO)C[C@@H]3O[C@H]1C[C@H](N)[C@H](O)[C@H](C)O1` [Doxorubicin] + Cc1cc2ncnn2cc1Nc1ncc2c(n1)n(C1CCOCC1)c(=O)n2C [AZD7648] (first compound max 1 µM, 7x7, partner max 10 µM), for which the Bliss excess in assay [1] was 0.0271; in assay [2] it was 0.0258; in assay [3] it was 0.076; in assay [4], 0.0213; in assay [5], -0.0211; in [6], 0.0914. In addition, the Bliss excess in assay [7] was -0.0383; in assay [8], 0.024; in assay [9], 0.122; in assay [10], -0.0534; in assay [11] it was 0.0113; in assay [12], 0.104. The Bliss excess turned out to be 0.0572 in assay [13]; 0.117 in assay [14]; 0.0406 in assay [15]; 0.0824 in assay [16]; 0.027 in assay [17]; 0.0893 in [18]. The figures for the Bliss excess in [19] and in [20] were 0.121 and -0.0391, respectively.

Values taken from the supplement of paper PMC11061612.
